Laboratory results as given in patent US10519134B2, “Pyrazole compounds and methods of making and using same” (Lundbeck La Jolla Research Center, Inc., priority 2015, dated 2019).

Columns and labels:
MAGL [1] = target: T1, MAGL (Mus musculus, UniProt O35678); test: Mouse brain proteomes from inhibitor treated mice (oral gavage, sacrificed 4 h after administration); format: in vivo; details: read-out: MAGL % inh. 5 mg/kg
T1 construct: Proteomes (mouse brain membrane fraction or cell lysates); from tissue; host or cells: mouse brain membrane fraction (or cell lysates)
T1 sequence (O35678 1-303): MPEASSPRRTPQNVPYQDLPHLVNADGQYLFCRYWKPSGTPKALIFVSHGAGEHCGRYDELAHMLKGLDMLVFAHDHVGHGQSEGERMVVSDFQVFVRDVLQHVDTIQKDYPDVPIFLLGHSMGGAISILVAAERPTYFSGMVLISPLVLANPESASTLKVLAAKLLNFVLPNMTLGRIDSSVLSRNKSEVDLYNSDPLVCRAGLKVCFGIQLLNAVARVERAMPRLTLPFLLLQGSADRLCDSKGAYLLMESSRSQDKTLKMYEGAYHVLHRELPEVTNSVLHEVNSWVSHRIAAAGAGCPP
Procedure, shortened: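 Wild-type C57Bl/6J mice got compound by oral gavage in polyethylene glycol vehicle. Brain proteomes were prepared 4 h after dosing and analyzed for serine hydrolase activity.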

MAGL [2] = target: T1, MAGL; test: In vitro competitive activity-based protein profiling (mouse), MAGL gel band; format: biochemical; details: for IC50: mouse; for inhibition at 1 µM: read-out: MAGL % inh. 1 μM
Procedure, shortened: (§1)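 Mouse brain membrane proteome or cell lysate (1.0 mg/mL total protein) was preincubated with varying inhibitor concentrations for 30 min at 37 °C, then labelled for 30 min at 37 °C with FP-Rh or HT-01 (50 μM stock in DMSO). Activity was read as fluorescent band intensity after SDS-PAGE.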

FAAH = target: T2, FAAH (Mus musculus, UniProt O08914); test: In vitro competitive activity-based protein profiling (mouse), FAAH gel band; format: biochemical; details: for IC50: mouse; for inhibition at 1 µM: read-out: FAAH % inh. 1 μM
T2 construct: Proteomes (mouse brain membrane fraction or cell lysates); from tissue; host or cells: mouse brain membrane fraction (or cell lysates)
T2 sequence (O08914 1-579): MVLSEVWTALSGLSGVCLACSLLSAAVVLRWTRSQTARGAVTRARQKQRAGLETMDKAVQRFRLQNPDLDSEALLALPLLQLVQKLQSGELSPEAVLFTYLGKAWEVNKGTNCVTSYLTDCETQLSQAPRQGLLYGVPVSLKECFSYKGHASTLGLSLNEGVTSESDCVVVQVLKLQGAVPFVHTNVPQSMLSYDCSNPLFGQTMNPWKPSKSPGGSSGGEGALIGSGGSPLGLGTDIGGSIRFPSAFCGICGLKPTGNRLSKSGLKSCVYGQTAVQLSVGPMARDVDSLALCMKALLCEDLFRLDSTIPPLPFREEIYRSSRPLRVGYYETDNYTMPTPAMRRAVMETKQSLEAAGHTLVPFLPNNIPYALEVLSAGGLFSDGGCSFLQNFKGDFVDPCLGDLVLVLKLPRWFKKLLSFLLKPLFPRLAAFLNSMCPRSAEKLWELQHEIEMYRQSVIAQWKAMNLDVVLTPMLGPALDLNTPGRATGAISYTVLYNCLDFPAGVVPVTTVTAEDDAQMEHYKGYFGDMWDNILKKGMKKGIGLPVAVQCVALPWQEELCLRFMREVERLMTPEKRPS
Procedure, shortened: as §1

SMILES | inhibition at 5 mg/kg (MAGL [1]) | IC50 (MAGL [2]) | inhibition at 1 µM (MAGL [2]) | IC50 (FAAH) | inhibition at 1 µM (FAAH)
CC(=O)Nc1ccn(C(=O)N2CCC3(CCCN3Cc3cc(Cl)cc(N4CCCC4)c3)CC2)n1 [Example 63, N-(1-(1-(3-chloro-5-(pyrrolidin-1-yl)benzyl)-1,8-diazaspiro[4.5]decane-8-carbonyl)-1H-pyrazol-3-yl)acetamide] | 25 to 50% | ≤ 100 nM | ≥ 75% | 1000 to 10000 nM | 0 to 25%
CC(=O)Nc1ccn(C(=O)N2CCC3(CCCN3Cc3cc(N4CC5CN(C(C)=O)CC5C4)cc(C(F)(F)F)c3)CC2)n1 (stereo not drawn) [Example 69, N-(1-(1-(3-(5-acetylhexahydropyrrolo[3,4-c]pyrrol-2(1H)-yl)-5-(trifluoromethyl)benzyl)-1,8-diazaspiro[4.5]decane-8-carbonyl)-1H-pyrazol-3-yl)acetamide] | 0 to 25% | 100 to 1000 nM | ≥ 75% | 1000 to 10000 nM | 0 to 25%
CC(=O)Nc1ccn(C(=O)N2CCN(Cc3ccc(C(F)(F)F)cc3OC3CCN(C4CC4)CC3)CC2)n1 [Example 71, N-(1-(4-(2-(1-cyclopropylpiperidin-4-yloxy)-4-(trifluoromethyl)benzyl)piperazine-1-carbonyl)-1H-pyrazol-3-yl)acetamide] | 25 to 50% | ≤ 100 nM | ≥ 75% | 1000 to 10000 nM | 0 to 25%
CC(=O)Nc1ccn(C(=O)N2CCN(Cc3cc(OC4CCN(C5CC5)CC4)cc(C(F)(F)F)c3)CC2)n1 [Example 72, N-(1-(4-(3-(1-cyclopropylpiperidin-4-yloxy)-5-(trifluoromethyl)benzyl)piperazine-1-carbonyl)-1H-pyrazol-3-yl)acetamide] | 0 to 25% | ≤ 100 nM | ≥ 75% | 1000 to 10000 nM | 0 to 25%
CC(=O)Nc1ccn(C(=O)N2CCN(Cc3ccc(C(F)(F)F)cc3Oc3cncnc3)CC2)n1 [Example 73, N-(1-(4-(2-(pyrimidin-5-yloxy)-4-(trifluoromethyl)benzyl)piperazine-1-carbonyl)-1H-pyrazol-3-yl)acetamide] | 0 to 25% | ≤ 100 nM | ≥ 75% | 1000 to 10000 nM | 0 to 25%
CC(=O)Nc1ccn(C(=O)N2CCN(Cc3cc(Oc4cncnc4)cc(C(F)(F)F)c3)CC2)n1 [Example 74, N-(1-(4-(3-(pyrimidin-5-yloxy)-5-(trifluoromethyl)benzyl)piperazine-1-carbonyl)-1H-pyrazol-3-yl)acetamide] | 25 to 50% | ≤ 100 nM | ≥ 75% | 1000 to 10000 nM | 0 to 25%
CC(=O)Nc1ccn(C(=O)N2CCN(Cc3cc(OC4CCS(=O)(=O)CC4)cc(C(F)(F)F)c3)CC2)n1 [Example 78, N-(1-(4-(3-((1,1-dioxidotetrahydro-2H-thiopyran-4-yl)oxy)-5-(trifluoromethyl)benzyl)piperazine-1-carbonyl)-1H-pyrazol-3-yl)acetamide] | 0 to 25% | ≤ 100 nM | ≥ 75% | 1000 to 10000 nM | 0 to 25%
CC(=O)Nc1ccn(C(=O)N2CCN(Cc3ccc(C(F)(F)F)cc3OCC(=O)N3CCCC3)CC2)n1 [Example 79, N-(1-(4-(2-(2-oxo-2-(pyrrolidin-1-yl)ethoxy)-4-(trifluoromethyl)benzyl)piperazine-1-carbonyl)-1H-pyrazol-3-yl)acetamide] | 0 to 25% | ≤ 100 nM | ≥ 75% | 1000 to 10000 nM | 0 to 25%
CC(=O)Nc1ccn(C(=O)N2CCN(Cc3cc(OCC(=O)N4CCCC4)cc(C(F)(F)F)c3)CC2)n1 [Example 80, N-(1-(4-(3-(2-oxo-2-(pyrrolidin-1-yl)ethoxy)-5-(trifluoromethyl)benzyl)piperazine-1-carbonyl)-1H-pyrazol-3-yl)acetamide] | 0 to 25% | ≤ 100 nM | ≥ 75% | 1000 to 10000 nM | 0 to 25%
